“And” between values parts separate entries of the source, which are not always exact repeats. Identical values can stand only once.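 Grown in 96-well plates, cells were treated for 48 hours with each compound at five concentrations. Insufficient inhibition: endpoint recorded as highest concentration tested. GI50 marks 50% less growth. Definition used: TGI = concentration required for complete inhibition of growth.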
Columns and labels:
Assay in all cases: growth of human tumour cells (NCI), 48 h
ACHN renal = test system: ACHN renal
HOP-92 NSCLC = test system: HOP-92 NSCLC
KM12 colon = test system: KM12 colon
M14 melanoma = test system: M14 melanoma
OVCAR-8 ovarian = test system: OVCAR-8 ovarian
RXF 393 renal = test system: RXF 393 renal
SNB-75 CNS = test system: SNB-75 CNS
UACC-62 melanoma = test system: UACC-62 melanoma
A498 renal = test system: A498 renal
MCF7 breast = test system: MCF7 breast

SMILES | TGI (ACHN renal) | TGI (HOP-92 NSCLC) | TGI (KM12 colon) | TGI (M14 melanoma) | TGI (OVCAR-8 ovarian) | TGI (RXF 393 renal) | TGI (SNB-75 CNS) | TGI (UACC-62 melanoma) | TGI (A498 renal) | GI50 (A498 renal) | GI50 (ACHN renal) | GI50 (HOP-92 NSCLC) | GI50 (KM12 colon) | GI50 (M14 melanoma) | GI50 (MCF7 breast) | TGI (MCF7 breast) | GI50 (OVCAR-8 ovarian) | GI50 (RXF 393 renal) | GI50 (UACC-62 melanoma) | GI50 (SNB-75 CNS)
CC(=O)NCCSC(=O)c1ccccc1 | 0.0971 µM | 15.5 µM | 2.54 µM | 0.242 µM | 0.81 µM | 0.958 µM | 12.4 µM | 0.0786 µM | – | – | – | – | – | – | – | – | – | – | – | –
O=c1c2cc(Br)ccc2nc(-c2ccccc2Cl)n1NCC1(O)OCC(O)C(O)C1O (stereo unspecified) | > 100 µM | – | > 100 µM | > 100 µM | > 100 µM | > 100 µM | > 100 µM | > 100 µM | > 100 µM | – | – | – | – | – | – | – | – | – | – | –
Cc1ccc(/C=C2/SC(Nc3nc(-c4nc(NC5=NC(=O)/C(=C\c6ccc(C)cc6)S5)sc4C)c(C)s3)=NC2=O)cc1 | > 29.6 µM | > 47.8 µM | 18.6 µM | 1.21 µM | > 31.6 µM | 3.65 µM | – | 1.71 µM | 7.52 µM | 1.4 µM | 0.559 µM | 17.1 µM | 0.289 µM | 0.0642 µM | 1.01 µM | > 50 µM | 1.66 µM | 0.282 µM | 0.0759 µM | –
CC1CC(c2cccc3c2OCO3)=Nc2ccccc2S1 (stereo unspecified) | > 100 µM | > 100 µM | > 100 µM | > 100 µM | > 100 µM | > 100 µM | > 100 µM | > 100 µM | > 100 µM | – | – | – | – | – | – | – | – | – | – | –
CC1=C(C(=O)Nc2cccc(Cl)c2)C(c2ccc([N+](=O)[O-])cc2)C(C(=O)Nc2cccc(Cl)c2)=C(C)N1 | 97.9 µM | 31.1 µM | 52.9 µM | 42.1 µM | > 100 µM | 58.7 µM | 91.1 µM | 37.2 µM | > 100 µM | – | – | – | – | – | – | – | – | – | – | –
O=C1Nc2ccccc2C1Cc1ccc([N+](=O)[O-])cc1 (stereo unspecified) | > 100 µM | – | > 100 µM | > 100 µM | > 100 µM | > 100 µM | > 100 µM | > 100 µM | – | – | – | – | – | – | – | > 100 µM | – | – | – | –
O=C(/C=C/c1ccc(Cl)c(Cl)c1)c1ccc(F)cc1 | 31.6 µM | 72.1 µM | 21.9 µM | 30.5 µM | 30.8 µM | – | 58.3 µM | 28.8 µM | > 100 µM | – | – | – | – | – | – | – | – | – | – | –
COCC1N=C(c2cc(OC)c(OC)c(OC)c2-c2cc3c(cc2C2OCCCO2)OCO3)O[C@H]1c1ccccc1 (stereo partly specified) | > 100 µM | > 100 µM | > 100 µM | > 100 µM | > 100 µM | > 100 µM | > 100 µM | > 100 µM | > 100 µM | – | – | – | – | – | – | – | – | – | – | –
CC(/C(=N/NC(=O)C(N)=O)c1c(Cl)ccc(Cl)c1O)C1(O)C(=O)Nc2ccccc21 (stereo unspecified) | > 100 µM | 75.2 µM | > 100 µM | > 100 µM | > 100 µM | > 100 µM | > 100 µM | > 100 µM | 76.9 µM | – | – | – | – | – | – | – | – | – | – | –
CCN1CCN(CC(=O)Nc2nc3ccc(NCc4ccc(Cl)cc4)cc3s2)CC1 | 5.02 µM | 2.77 µM | > 100 µM | 3.63 µM | > 100 µM | 3.05 µM | 4.5 µM | 4.03 µM | 17 µM | 4.09 µM | 2.22 µM | 1.12 µM | 3.73 µM | 1.86 µM | – | – | 4.59 µM | 1.54 µM | 2.08 µM | 1.88 µM
O=c1c2cccc3cccc(c4oc5c6cccc7cccc(c(=O)c5c14)c76)c32 | 16.3 µM | 15.2 µM | 21.2 µM | 17.7 µM | 16.1 µM | 16.6 µM | 21.7 µM | 17.6 µM | > 100 µM | – | – | – | – | – | – | – | – | – | – | –
Fc1cccc2cc3ccc4cccc5ccc(c12)c3c45 | > 100 µM | – | > 100 µM | > 100 µM | > 100 µM | > 100 µM | > 100 µM | > 100 µM | > 100 µM | – | – | – | – | – | – | – | – | – | – | –
CC(=O)Nc1ccc(/C=N\N2C(=O)c3ccccc3C2=O)cc1 | > 100 µM | > 100 µM | > 100 µM | > 100 µM | > 100 µM | > 100 µM | > 100 µM | > 100 µM | > 100 µM | – | – | – | – | – | – | – | – | – | – | –
COC(C(=O)C(O)C(C)O)C1Cc2cc3cc(OC4CC(OC(C)=O)C(OC5CC(O)C(OC)C(C)O5)C(C)O4)cc(O)c3c(O)c2C(=O)C1OC1CC(OC2CC(OC3CC(C)(O)C(OC(=O)C(C)C)C(C)O3)C(O)C(C)O2)C(O)C(C)O1 (stereo unspecified) | 0.198 µM | 0.288 µM and 0.039 µM | – | 0.257 µM and 0.0292 µM | – | – | 0.0626 µM and 0.0109 µM and 0.0075 µM | – | – | 0.154 µM and 0.0248 µM | – | 0.0383 µM and 0.00429 µM | – | – | 0.0465 µM | 0.327 µM and < 0.215 µM | – | – | 0.00129 µM | 0.00157 µM
COc1ccc(-c2nnc(SCC(=O)Nc3ccc(/C(C)=N\O)cc3)n2-c2ccccc2)cc1OC | > 100 µM | 6.42 µM | > 100 µM | > 100 µM | > 100 µM | 7.11 µM | – | > 100 µM | 46.1 µM | 2.72 µM | 8.08 µM | 2.12 µM | > 100 µM | 97.4 µM | > 100 µM | > 100 µM | 7.36 µM | 2.56 µM | > 100 µM | –
Nc1ccn(CCO)c(=O)n1 | > 100 µM | > 100 µM | > 100 µM | > 100 µM | > 100 µM | > 100 µM | > 100 µM | > 100 µM | > 100 µM | – | – | – | – | – | – | – | – | – | – | –
[C-]#[O+].[C-]#[O+].[C-]#[O+].[C-]#[O+].[Ir].[Ir].[O-]c1ccc2ccccc2c1C=Nc1ccc(N=Cc2c([O-])ccc3ccccc23)cc1 | > 100 µM | > 100 µM | > 100 µM | > 100 µM | > 100 µM | > 100 µM | – | > 100 µM | – | – | > 100 µM | 40 µM | > 100 µM | > 100 µM | – | – | > 100 µM | > 100 µM | > 100 µM | –
O=C(O)CCSCCCN1C(=O)c2ccccc2C1=O | > 100 µM | > 100 µM | > 100 µM | – | > 100 µM | > 100 µM | > 100 µM | > 100 µM | – | – | – | – | – | – | – | – | – | – | – | –
Cc1nn(-c2ccccc2)c2c1CC(=O)Nc1ccccc1-2 | > 100 µM | – | > 100 µM | > 100 µM | – | 5.85 µM | – | 73.4 µM | – | 0.027 µM | 0.84 µM | – | 0.0888 µM | 0.188 µM | 0.0788 µM | > 100 µM | – | – | 0.158 µM | 0.21 µM

From PubChem BioAssay (NCI)
